Target: AMPK
Experiment: AMPK activation, enzyme-linked immunosorbent assay
Type: biochemical
Conditions: compounds of Table 5 (Table 10)

Structure (SMILES) | EC50 [nM]
O=C(NC1CCN(C(=O)c2ccc(F)cc2)CC1)c1ccc(OC2CCN(c3ccc(C(F)(F)F)cc3)CC2)c(F)c1 [5-31, 3-fluoro-N-(1-(4-fluorobenzoyl)piperidin-4-yl)-4-(1-(4-(trifluoromethyl)phenyl)piperidin-4-yloxy)benzamide] | < 1000
O=C(NC1CCN(Cc2ccccn2)CC1)c1ccc(OC2CCN(c3ccc(C(F)(F)F)cc3)CC2)c(F)c1 [5-32, 3-fluoro-N-(1-(pyridin-2-ylmethyl)piperidin-4-yl)-4-(1-(4-(trifluoromethyl)phenyl)piperidin-4-yloxy)benzamide] | < 1000
COC(=O)c1ccc(CN2CCC(NC(=O)c3ccc(OC4CCN(c5ccc(C(F)(F)F)cc5)CC4)c(F)c3)CC2)cc1 [5-33, methyl 4-((4-(3-fluoro-4-(1-(4-(trifluoromethyl)phenyl)piperidin-4-yloxy)benzamido)piperidin-1-yl)methyl)benzoate] | < 1000
CC(C)S(=O)(=O)N1CCC(NC(=O)c2ccc(OC3CCN(c4ccc(C(F)(F)F)cc4)CC3)c(F)c2)CC1 [5-34, 3-fluoro-N-(1-(isopropylsulfonyl)piperidin-4-yl)-4-(1-(4-(trifluoromethyl)phenyl)piperidin-4-yloxy)benzamide] | < 1000
O=C(O)c1ccc(CN2CCC(NC(=O)c3ccc(OC4CCN(c5ccc(C(F)(F)F)cc5)CC4)c(F)c3)CC2)cc1 [5-35, 4-((4-(3-fluoro-4-(1-(4-(trifluoromethyl)phenyl)piperidin-4-yloxy)benzamido)piperidin-1-yl)methyl)benzoic acid] | 1000 to 10000
O=C(NC1CCN(Cc2ccccc2)CC1)c1ccc(OC2CCN(Cc3ccncc3)CC2)c(F)c1 [5-37, N-(1-benzylpiperidin-4-yl)-3-fluoro-4-(1-(pyridin-4-ylmethyl)piperidin-4-yloxy)benzamide] | < 1000
O=C(NC1CCN(Cc2ccccc2)CC1)c1ccc(OC2CCN(Cc3cccnc3)CC2)c(F)c1 [5-38, N-(1-benzylpiperidin-4-yl)-3-fluoro-4-(1-(pyridin-3-ylmethyl)piperidin-4-yloxy)benzamide] | 1000 to 10000
O=C(NC1CCN(Cc2ccccc2)CC1)c1ccc(OC2CCN(Cc3ccccn3)CC2)c(F)c1 [5-39, N-(1-benzylpiperidin-4-yl)-3-fluoro-4-(1-(pyridin-2-ylmethyl)piperidin-4-yloxy)benzamide] | 1000 to 10000
O=C(NC1CCN(C(=O)c2ccncc2)CC1)c1ccc(OC2CCN(c3ccc(C(F)(F)F)cc3)CC2)c(F)c1 [5-40, 3-fluoro-N-(1-isonicotinoylpiperidin-4-yl)-4-(1-(4-(trifluoromethyl)phenyl)piperidin-4-yloxy)benzamide] | < 1000
O=C(NC1CCN(Cc2ccccc2)CC1)c1ccc(OC2CCN(Cc3ccc(C(F)(F)F)cc3)CC2)c(F)c1 [5-55, N-(1-benzylpiperidin-4-yl)-3-fluoro-4-(1-(4-(trifluoromethyl)benzyl)piperidin-4-yloxy)benzamide] | < 1000
CN1CCC(NC(=O)c2ccc(OC3CCN(Cc4ccc(C(F)(F)F)cc4)CC3)c(Cl)c2)CC1 [5-58, 3-chloro-N-(1-methylpiperidin-4-yl)-4-(1-(4-(trifluoromethyl)benzyl)piperidin-4-yloxy)benzamide] | 1000 to 10000
O=C(NC1CCN(Cc2ccccc2)CC1)c1ccc(OC2CCN(Cc3cccc(C(F)(F)F)c3)CC2)c(F)c1 [5-59, N-(1-benzylpiperidin-4-yl)-3-fluoro-4-(1-(3-(trifluoromethyl)benzyl)piperidin-4-yloxy)benzamide] | < 1000
O=C(NC1CCN(Cc2ccccc2)CC1)c1ccc(OC2CCN(Cc3cccc(C(F)(F)F)c3)CC2)c(Cl)c1 [5-60, N-(1-benzylpiperidin-4-yl)-3-chloro-4-(1-(3-(trifluoromethyl)benzyl)piperidin-4-yloxy)benzamide] | < 1000
O=C(NC1CCN(Cc2ccccc2)CC1)c1cc(Cl)c(OC2CCN(Cc3cccc(C(F)(F)F)c3)CC2)c(Cl)c1 [5-62, N-(1-benzylpiperidin-4-yl)-3,5-dichloro-4-(1-(3-(trifluoromethyl)benzyl)piperidin-4-yloxy)benzamide] | < 1000
O=C(NC1CCN(Cc2ccc(F)cc2)CC1)c1ccc(OC2CCN(Cc3ccc(Cl)cc3)CC2)c(Cl)c1 [5-66, 3-chloro-4-(1-(4-chlorobenzyl)piperidin-4-yloxy)-N-(1-(4-fluorobenzyl)piperidin-4-yl)benzamide] | < 1000

Second part, the compound after the results:

EC50 [nM] | Structure (SMILES)
< 1000 | CC(C)(C)c1ccc(CN2CCC(Oc3ccc(C(=O)NC4CCN(c5ccccc5)CC4)cc3F)CC2)cc1 [5-36, 4-(1-(4-tert-butylbenzyl)piperidin-4-yloxy)-3-fluoro-N-(1-phenylpiperidin-4-yl)benzamide]
< 1000 | N#Cc1ccc(CN2CCC(Oc3ccc(C(=O)NC4CCN(Cc5ccccc5)CC4)cc3F)CC2)cc1 [5-41, N-(1-benzylpiperidin-4-yl)-4-(1-(4-cyanobenzyl)piperidin-4-yloxy)-3-fluorobenzamide]
< 1000 | Cc1ccc(CN2CCC(Oc3ccc(C(=O)NC4CCN(Cc5ccccc5)CC4)cc3F)CC2)cc1 [5-42, N-(1-benzylpiperidin-4-yl)-3-fluoro-4-(1-(4-methylbenzyl)piperidin-4-yloxy)benzamide]
< 1000 | N#Cc1ccc(CN2CCC(NC(=O)c3ccc(OC4CCN(c5ccc(C(F)(F)F)cc5)CC4)c(F)c3)CC2)cc1 [5-43, N-(1-(4-cyanobenzyl)piperidin-4-yl)-3-fluoro-4-(1-(4-(trifluoromethyl)phenyl)piperidin-4-yloxy)benzamide]
< 1000 | N#Cc1ccc(N2CCC(Oc3ccc(C(=O)NC4CCN(Cc5ccncc5)CC4)cc3F)CC2)cc1 [5-44, 4-(1-(4-cyanophenyl)piperidin-4-yloxy)-3-fluoro-N-(1-(pyridin-4-ylmethyl)piperidin-4-yl)benzamide]
< 1000 | N#Cc1ccc(CN2CCC(NC(=O)c3ccc(OC4CCN(c5ccc(C#N)cc5)CC4)c(F)c3)CC2)cc1 [5-45, N-(1-(4-cyanobenzyl)piperidin-4-yl)-4-(1-(4-cyanophenyl)piperidin-4-yloxy)-3-fluorobenzamide]
< 1000 | O=C(NC1CCN(Cc2ccccc2)CC1)c1cccc(OC2CCN(c3ccc(C(F)(F)F)cc3)CC2)c1 [5-46, N-(1-benzylpiperidin-4-yl)-3-(1-(4-(trifluoromethyl)phenyl)piperidin-4-yloxy)benzamide]
< 1000 | O=C(NC1CCN(Cc2ccccc2)CC1)c1ccc(OC2CCN(c3ccc(C(F)(F)F)cc3)CC2)cc1Cl [5-47, N-(1-benzylpiperidin-4-yl)-2-chloro-4-(1-(4-(trifluoromethyl)phenyl)piperidin-4-yloxy)benzamide]
< 1000 | N#Cc1ccc(N2CCC(Oc3cccc(C(=O)NC4CCN(Cc5ccccc5)CC4)c3)CC2)cc1 [5-48, N-(1-benzylpiperidin-4-yl)-3-(1-(4-cyanophenyl)piperidin-4-yloxy)benzamide]
< 1000 | N#Cc1ccc(N2CCC(Oc3ccc(C(=O)NC4CCN(Cc5ccccc5)CC4)c(Cl)c3)CC2)cc1 [5-49, N-(1-benzylpiperidin-4-yl)-2-chloro-4-(1-(4-cyanophenyl)piperidin-4-yloxy)benzamide]
1000 to 10000 | N#Cc1ccc(CN2CCC(Oc3cccc(C(=O)NC4CCN(Cc5ccccc5)CC4)c3)CC2)cc1 [5-50, N-(1-benzylpiperidin-4-yl)-3-(1-(4-cyanobenzyl)piperidin-4-yloxy)benzamide]
< 1000 | N#Cc1ccc(CN2CCC(Oc3ccc(C(=O)NC4CCN(Cc5ccccc5)CC4)c(Cl)c3)CC2)cc1 [5-51, N-(1-benzylpiperidin-4-yl)-2-chloro-4-(1-(4-cyanobenzyl)piperidin-4-yloxy)benzamide]
1000 to 10000 | O=C(NC1CCN(Cc2ccccc2)CC1)c1cccc(OC2CCN(Cc3ccc(C(F)(F)F)cc3)CC2)c1 [5-52, N-(1-benzylpiperidin-4-yl)-3-(1-(4-(trifluoromethyl)benzyl)piperidin-4-yloxy)benzamide]
10000 to 20000 | O=C(NC1CCN(Cc2ccccc2)CC1)c1cccc(OC2CCN(c3ccncc3)CC2)c1 [5-53, N-(1-benzylpiperidin-4-yl)-3-(1-(pyridin-4-yl)piperidin-4-yloxy)benzamide]
< 1000 | O=C(NC1CCN(Cc2ccccc2)CC1)c1ccc(OC2CCN(Cc3ccc(OC(F)(F)F)cc3)CC2)c(Cl)c1 [5-54, N-(1-benzylpiperidin-4-yl)-3-chloro-4-(1-(4-(trifluoromethoxy)benzyl)piperidin-4-yloxy)benzamide]
< 1000 | O=C(NC1CCN(Cc2ccccc2)CC1)c1ccc(OC2CCN(Cc3ccc(C(F)(F)F)cc3)CC2)c(Cl)c1 [5-56, N-(1-benzylpiperidin-4-yl)-3-chloro-4-(1-(4-(trifluoromethyl)benzyl)piperidin-4-yloxy)benzamide]
< 1000 | O=C(NC1CCN(Cc2ccccc2)CC1)c1ccc(OC2CCN(Cc3ccc(OC(F)(F)F)cc3)CC2)c(F)c1 [5-57, N-(1-benzylpiperidin-4-yl)-3-fluoro-4-(1-(4-(trifluoromethoxy)benzyl)piperidin-4-yloxy)benzamide]
< 1000 | O=C(NC1CCN(Cc2ccccc2)CC1)c1ccc(OC2CCN(Cc3ccc(F)cc3)CC2)c(F)c1 [5-61, N-(1-benzylpiperidin-4-yl)-3-fluoro-4-(1-(4-fluorobenzyl)piperidin-4-yloxy)benzamide]
< 1000 | O=C(NC1CCN(Cc2ccccc2)CC1)c1ccc(OC2CCN(Cc3ccc(OC(F)(F)F)cc3)CC2)cc1 [5-63, N-(1-benzylpiperidin-4-yl)-4-(1-(4-(trifluoromethoxy)benzyl)piperidin-4-yloxy)benzamide]
< 1000 | O=C(NC1CCN(Cc2ccccc2)CC1)c1ccc(OC2CCN(Cc3ccc(Cl)cc3)CC2)c(F)c1 [5-64, N-(1-benzylpiperidin-4-yl)-4-(1-(4-chlorobenzyl)piperidin-4-yloxy)-3-fluorobenzamide]
< 1000 | O=C(NC1CCN(Cc2ccccc2)CC1)c1ccc(OC2CCN(Cc3ccc(Cl)cc3)CC2)c(Cl)c1 [5-65, N-(1-benzylpiperidin-4-yl)-3-chloro-4-(1-(4-chlorobenzyl)piperidin-4-yloxy)benzamide]
< 1000 | N#Cc1ccc(CN2CCC(Oc3ccc(C(=O)NC4CCN(Cc5ccccc5)CC4)cc3Cl)CC2)cc1 [5-67, N-(1-benzylpiperidin-4-yl)-3-chloro-4-(1-(4-cyanobenzyl)piperidin-4-yloxy)benzamide]
